The source made the active and inactive calls. The rule behind the calls is not given here.
How the values were obtained:
D(1A) dopamine receptor = D(1A) dopamine receptor (Rattus norvegicus, UniProt P18901); assay: Displacement of [3H]SCH23390 from dopamine D1 receptor in rat forebrain
D(2) dopamine receptor = D(2) dopamine receptor (Rattus norvegicus, UniProt P61169); assay: Displacement of [3H]nemonapride from dopamine D2 receptor in rat forebrain
[1] = Selectivity ratio of Ki for dopamine D1 receptor to Ki for dopamine D2 receptor in rat forebrain
Rattus norvegicus [2] = assay: Induction of locomotor activity in adult rat at 4 umol/kg, ip after 12 to 24 hrs; format: functional, organism-based
Rattus norvegicus [3] = assay: Toxicity in adult rat assessed as induction of sedation at 4 umol/kg, ip after 12 to 20 hrs; format: organism-based; details: in vivo

Chain of D(1A) dopamine receptor (P18901 whole entry): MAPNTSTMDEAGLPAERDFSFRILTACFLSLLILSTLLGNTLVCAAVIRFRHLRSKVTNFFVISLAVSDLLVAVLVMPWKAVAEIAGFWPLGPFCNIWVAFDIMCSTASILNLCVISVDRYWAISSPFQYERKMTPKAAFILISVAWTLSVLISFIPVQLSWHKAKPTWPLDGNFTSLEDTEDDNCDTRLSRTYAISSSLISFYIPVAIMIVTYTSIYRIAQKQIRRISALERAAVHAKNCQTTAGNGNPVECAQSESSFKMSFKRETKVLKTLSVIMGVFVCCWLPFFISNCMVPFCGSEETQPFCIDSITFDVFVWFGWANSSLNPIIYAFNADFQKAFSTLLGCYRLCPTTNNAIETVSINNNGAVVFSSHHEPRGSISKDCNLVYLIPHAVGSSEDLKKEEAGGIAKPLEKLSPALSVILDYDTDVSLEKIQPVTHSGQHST
Chain of D(2) dopamine receptor (P61169 whole entry): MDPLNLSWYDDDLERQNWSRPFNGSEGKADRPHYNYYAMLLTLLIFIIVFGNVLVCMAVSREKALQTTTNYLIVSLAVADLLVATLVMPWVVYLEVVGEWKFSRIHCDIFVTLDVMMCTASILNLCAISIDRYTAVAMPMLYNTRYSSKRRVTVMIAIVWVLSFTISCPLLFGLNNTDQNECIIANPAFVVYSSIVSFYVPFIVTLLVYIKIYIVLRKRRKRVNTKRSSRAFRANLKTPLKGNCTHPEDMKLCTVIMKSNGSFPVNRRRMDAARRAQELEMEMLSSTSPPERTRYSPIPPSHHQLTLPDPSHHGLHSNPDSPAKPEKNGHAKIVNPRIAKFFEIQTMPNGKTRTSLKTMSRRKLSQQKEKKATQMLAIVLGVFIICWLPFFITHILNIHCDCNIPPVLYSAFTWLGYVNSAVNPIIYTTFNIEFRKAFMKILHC

Question: With `COc1cc2c3c(c1)-c1c(cccc1OC(C)=O)C[C@H]3N(C)CC2` as the molecule, how does the Ki (D(1A) dopamine receptor) read?
Answer: 0.526 µM

Question: And the Ki (D(2) dopamine receptor)?
Answer: 0.165 µM

Question: What about the ratio [1] of the same molecule?
Answer: 3

Question: Which Ki (D(1A) dopamine receptor) does the source give for `CCCN1CCc2cccc3c2[C@H]1Cc1cccc(OC(C)=O)c1-3` here?
Answer: > 10 µM

Question: And the ratio [1]?
Answer: > 138

Question: Which ratio [1] does the source give for `COc1cc2c3c(c1)-c1c(O)cccc1C[C@H]3N(C)CC2` here?
Answer: 0.2

Question: Which Ki (D(1A) dopamine receptor) does the source give for `CCCCC(=O)Oc1cccc2c1-c1cc(OC)cc3c1[C@@H](C2)N(CCC)CC3` here?
Answer: > 10 µM

Question: What about the Activity (Rattus norvegicus [2]) of the same molecule?
Answer: inactive

Question: And the Ki (D(2) dopamine receptor)?
Answer: 0.089 µM

Question: What about the ratio [1] of the same molecule?
Answer: > 112

Question: And the Activity (Rattus norvegicus [3])?
Answer: Toxic

Question: For `CCCCC(=O)Oc1cccc2c1-c1cc(OC)cc3c1[C@@H](C2)N(C)CC3`, which Ki (D(1A) dopamine receptor) is on record?
Answer: 1.48 µM

Question: What about the Ki (D(2) dopamine receptor) of the same molecule?
Answer: 0.192 µM

Question: And the ratio [1]?
Answer: 8

Question: Which ratio [1] does the source give for `CCCN1CCc2cc(OC)cc3c2[C@H]1Cc1cccc(O)c1-3` here?
Answer: 38

Question: Which ratio [1] does the source give for `CN1CCc2cccc3c2[C@H]1Cc1ccc(O)c(O)c1-3` [APOMORPHINE] here?
Answer: 532

Question: Which Ki (D(1A) dopamine receptor) does the source give for `CCCCC(=O)Oc1cccc2c1-c1cccc3c1[C@@H](C2)N(CCC)CC3` here?
Answer: > 20 µM

Question: And the ratio [1]?
Answer: > 58

Question: For `CCCN1CCc2cc(OC)cc3c2[C@H]1Cc1cccc(OC(C)=O)c1-3`, which Ki (D(1A) dopamine receptor) is on record?
Answer: > 10 µM

Question: What about the Activity (Rattus norvegicus [2]) of the same molecule?
Answer: Active

Question: And the Ki (D(2) dopamine receptor)?
Answer: 0.0189 µM

Question: What about the ratio [1] of the same molecule?
Answer: > 529

Reference: ChEMBL document CHEMBL1139330, “Synthesis and neuropharmacological evaluation of esters of R(-)-N-alkyl-11-hydroxy-2-methoxynoraporphines” (Bioorg Med Chem Lett, 2009)
